Assays:
[1] = system: Egg of Spider Mite (Tetranychus Cinnabarinus); experiment: Activity against egg of spider mite, POTTER spray tower, incubation inhibition; assay type: in vivo; conditions: spider mite eggs; for inhibition at 1.25 µg/mL: Tetranychus cinnabarinus, read-out: Inhibition Rate (%)
Experimental: According to the solubility of test compounds, the compounds were dissolved with acetone or dimethyl sulfoxide, and then diluted with 0.1% aqueous solution of Tween 80 to form 50 ml test liquid and the content of the acetone or the dimethyl sulfoxide in the total solution was not more than 10% for later use. The leaves of bean were chopped into leaf discs and put into a petri dish. Female adult mites were inoculated. After laying eggs, the female adult mites were removed. After the number of eggs were investigated, the solution of certain concentrations of test compounds were sprayed with a POTTER spray tower, for 2 mL per treatment, and blank control was set. When all eggs in the blank control were incubated, the number of eggs which were incubated and unincubated was recorded, and incubation inhibition rate of the eggs was calculated.

[2] = system: Adult Spider Mite (Tetranychus cinnabarinus); experiment: Activity against adult spider mite, spray on bean leaves, mortality after 72 h; assay type: in vivo; conditions: adult spider mites
Experimental: According to the solubility of test compounds, the compounds were dissolved with acetone or dimethyl sulfoxide, and then diluted with 0.1% aqueous solution of Tween 80 to form 50 ml test liquid and the content of the acetone or the dimethyl sulfoxide in the total solution was not more than 10% for later use. The adult spider mites were put into two true leaves of bean plants. After the number of mites were investigated, the solution of certain concentrations of test compounds was sprayed by using a handheld Airbrush. Three replicates were set for each treatment. Then the leaves were maintained in standard observation room. After 72 h, the number of surviving mites were observed, and the mortality rate was calculated.

Panonychus citri = experiment: Field trial against Panonychus citri on citrus trees; assay type: in vivo; conditions: spray, citrus tree
Experimental: The trial was carried out in the citrus orchard in Yibin City, Sichuan Province. The test sample was “Dekopon”. The test citrus trees were 4 years old and the planting density was more than 70 plants/mu. The test compounds 6 and 14 were set at two different doses of 50 mg/L and 100 mg/L.
As the positive controls, Spirodiclofen suspension agent was set at one dose of 100 mg/L, and Pyridaben wettable powder was set at one dose of 100 mg/L. The test method was spraying by using Pentium 3WBD-20 sprayer, each treatment repeated three times. The number of initial mites was investigated before spraying, and the number of surviving mites was checked and recorded. The number of surviving mites was investigated on the 3 days, 7 days, 14 days, 21 days and 30 days after spraying respectively. The decline rate of mite populationg was counted and the control efficiency was calculated.

Panonychus ulmi = experiment: Field trial for controlling Panonychus ulmi on apple trees; assay type: in vivo; conditions: spray, apple tree
Experimental: The trial was carried out in the orchard of Research Institute of Pomology of Chinese Academy of Agricultural Sciences. The test sample was Starkrimson apple tree, which was 14 years old and the intervals between two plants was 2×4 m. The test compound 14 was set at two different doses of 50 mg/L and 100 mg/L, and Spirodiclofen suspension agent as the positive control was set at one dose of 50 mg/L. The test method was spraying by using the stretcher power sprayer, each treatment repeated three times. The number of initial mites was investigated before spraying, and the number of surviving mites was checked and recorded. The number of surviving mites was investigated on the 3 days, 7 days, 14 days and 21 days after spraying respectively. The decline rate of mite population was counted and the control efficiency was calculated.
[formula] • The field trial results for compound 14 against Panonychus ulmi (Xingcheng, Liaoning, May, 2018) were shown in Table 4.Table 4

two-spotted spider mites = conditions: concentration of 50 ppm; cited from earlier work
[3] = Tetranychus cinnabarinus, 1.25 mg/L

With Cc1cc(F)c(-c2cccc([N+](=O)[O-])c2)cc1SCC(F)(F)F [Compound 5] the “Inhibition Rate (%)” value ([1]; 0.625 mg/L) was 100%, the “Inhibition Rate (%)” value ([1]; 1.25 mg/L) was 100% and the “Mortality (%)” value ([2]; 0.625 mg/L) was 95.5%. For the same compound, the “Mortality (%)” value ([2]; 1.25 mg/L) was 100%.

In the case of Cc1cc(F)c(-c2cccc([N+](=O)[O-])c2)cc1[S+]([O-])CC(F)(F)F (centres unmarked) [Compound 6], the “Control efficiency (%) 3 days after pesticide application” value (“Control efficiency (%) 3 days” for short) (Panonychus citri; 50 mg/L) was 98.58%, the “Control efficiency (%) 7 days after pesticide application” value (from here on “Control efficiency (%) 7 days”) (Panonychus citri; 50 mg/L) was 96.69% and the “Control efficiency (%) 14 days after pesticide application” value (from here on “Control efficiency (%) 14 days”) (Panonychus citri; 50 mg/L) was 99.28%. For the same compound, the “Control efficiency (%) 21 days after pesticide application” value (shortened to “Control efficiency (%) 21 days”) (Panonychus citri; 50 mg/L) was 95.86%, the “Control efficiency (%) 30 days after pesticide application” value (“Control efficiency (%) 30 days” below) (Panonychus citri; 50 mg/L) was 94.62% and the “Mortality (%)” value ([2]; 0.625 mg/L) was 80.6%. For the same compound, the “Mortality (%)” value ([2]; 1.25 mg/L) was 97.6%.

With O=[N+]([O-])c1cccc(-c2cc(SCC(F)(F)F)c(Cl)cc2F)c1 [Compound 8] the “Mortality (%)” value ([2]; 0.625 mg/L) was 65.2% and the “Mortality (%)” value ([2]; 1.25 mg/L) was 90.7%.

In the case of CSc1cccc(-c2cc(SCC(F)(F)F)c(C)cc2F)c1 [Compound 14], the “Control efficiency (%) 3 days” value (Panonychus citri; 50 mg/L) was 99.61%, the “Control efficiency (%) 7 days” value (Panonychus citri; 50 mg/L) was 98.90% and the “Control efficiency (%) 14 days” value (Panonychus citri; 50 mg/L) was 99.08%. The “Control efficiency (%) 21 days” value (Panonychus citri; 50 mg/L) was 98.57%, the “Control efficiency (%) 30 days” value (Panonychus citri; 50 mg/L) was 97.35% and the “Inhibition Rate (%)” value ([1]; 0.625 mg/L) was 65.3%. For the same compound, the “Inhibition Rate (%)” value ([1]; 1.25 mg/L) was 95.8%, the “Control efficiency (%) 3 days” value (Panonychus ulmi; 50 mg/L) was 92.2% and the “Control efficiency (%) 7 days” value (Panonychus ulmi; 50 mg/L) was 86.4%. The “Control efficiency (%) 14 days” value (Panonychus ulmi; 50 mg/L) was 97.3%, the “Control efficiency (%) 21 days” value (Panonychus ulmi; 50 mg/L) was 93.2% and the “Control efficiency (%) 3 days” value (Panonychus ulmi; 100 mg/L) was 94.4%. The “Control efficiency (%) 7 days” value (Panonychus ulmi; 100 mg/L) was 96.6%, the “Control efficiency (%) 14 days” value (Panonychus ulmi; 100 mg/L) was 99.8% and the “Control efficiency (%) 21 days” value (Panonychus ulmi; 100 mg/L) was 99.1%.

With Cc1cc(F)c(-c2cccc(SCC(F)(F)F)c2)cc1SCC(F)(F)F [Compound 19] the “Inhibition Rate (%)” value ([1]; 0.625 mg/L) was 51.2% and the “Inhibition Rate (%)” value ([1]; 1.25 mg/L) was 81.1%.

With Cc1cc(F)c(-c2ccc(C(F)(F)F)cc2)cc1SCC(F)(F)F [KC1, reference compound] the inhibition at 1.25 µg/mL ([1]; 1.25 mg/L) was 26.2% and the mortality at 1.25 µg/mL [2, 3] was 36.5%.

For Cc1cc(F)c(-c2cccc(C(F)(F)F)c2)cc1SCC(F)(F)F [KC2, reference compound], the inhibition at 1.25 µg/mL ([1]; 1.25 mg/L) was 36.7% and the mortality at 1.25 µg/mL [2, 3] was 56.6%.

Cc1cc(F)c(-c2cccc(OC(F)(F)F)c2)cc1SCC(F)(F)F [KC3, reference compound] gave an inhibition at 1.25 µg/mL ([1]; 1.25 mg/L) of 20.7% and a mortality at 1.25 µg/mL [2, 3] of 50.7%.

For Cc1cc(F)c(-c2cccc(SCc3ccccc3)c2)cc1SCC(F)(F)F [KC4], the lethal activity (two-spotted spider mites) is listed as “more than 90%”, the inhibition at 1.25 µg/mL ([1]; 1.25 mg/L) is listed as 40.8% and the mortality at 1.25 µg/mL [2, 3] is listed as 16.4%.

Cc1cc(F)c(-c2ccc([N+](=O)[O-])cc2)cc1SCC(F)(F)F [KC5] showed a mortality at 0.625 µg/mL ([2]; Tetranychus cinnabarinus, 0.625 mg/L) of 29.8% and a mortality at 1.25 µg/mL [2, 3] of 71.7%.

Work on Cc1cc(F)c(-c2ccccc2[N+](=O)[O-])cc1SCC(F)(F)F [KC6] yielded a mortality at 1.25 µg/mL [2, 3] of 0%.

In the case of CC(C)(C)c1ccc(CSc2cnn(C(C)(C)C)c(=O)c2Cl)cc1 [Pyridaben, reference compound], the “Control efficiency (%) 3 days” value (Panonychus citri; 100 mg/L) was 80.24%, the “Control efficiency (%) 7 days” value (Panonychus citri; 100 mg/L) was 61.51% and the “Control efficiency (%) 14 days” value (Panonychus citri; 100 mg/L) was 61.51%. For the same compound, the “Control efficiency (%) 21 days” value (Panonychus citri; 100 mg/L) was 51.62% and the “Control efficiency (%) 30 days” value (Panonychus citri; 100 mg/L) was 56.60%.

In the case of CCC(C)(C)C(=O)OC1=C(c2ccc(Cl)cc2Cl)C(=O)OC12CCCCC2 [Spirodiclofen, reference compound], the “Control efficiency (%) 3 days” value (Panonychus citri; 100 mg/L) was 91.09%, the “Control efficiency (%) 7 days” value (Panonychus citri; 100 mg/L) was 80.88% and the “Control efficiency (%) 14 days” value (Panonychus citri; 100 mg/L) was 80.88%. For the same compound, the “Control efficiency (%) 21 days” value (Panonychus citri; 100 mg/L) was 72.63%, the “Control efficiency (%) 30 days” value (Panonychus citri; 100 mg/L) was 73.60% and the “Control efficiency (%) 3 days” value (Panonychus ulmi; 50 mg/L) was 49.6%. For the same compound, the “Control efficiency (%) 7 days” value (Panonychus ulmi; 50 mg/L) was 45.8%, the “Control efficiency (%) 14 days” value (Panonychus ulmi; 50 mg/L) was 90.3% and the “Control efficiency (%) 21 days” value (Panonychus ulmi; 50 mg/L) was 94.9%.

From US12655099B2, “Substituted phenyl sulfide compound and application thereof” (SHENYANG SINOCHEM AGROCHEMICALS R&D CO., LTD., priority 2020, dated 2026)
